Assay results: patent publication US20100184811A1, “ISONIAZID MEDIATED HEALING OF WOUNDS AND ULCERS” (priority 2006, published 2010)
Entries after “also recorded” stand apart in the source; their conditions may differ.

Key:
[1] = Tolerability and body weight in the rat wound model
Description: Rats were anesthetized by intraperitoneal (i.p.) injection of 100 mg/kg ketamine (Parke-Davis, Berlin, Germany) and 15 mg/kg xylazin (Bayer, Leverkusen, Germany). A standardized pedunculated dorsal ischemic skin flap (3 cm×7 cm) was lifted, replaced, and fixed with metal clips. Two full-thickness wounds were made using punch biopsies (8 mm diameter), one in the ischemic flap region and one non-ischemic outside the flap in the neck.
To the control group, comprising 10 rats, 10 ml/kg of sterile isotonic saline was administered. The compounds were masked to the investigators. The first dose was given directly after wounding. Wounds were traced (outer margins) on OpSite* Flexigrid* (Smith & Nephew) 30 minutes after wounding day 0 and after dressing (Hydrosorb, Hartmann) removal and wound cleansing on subsequent days (Table I). On post-wounding day 2, intracutaneous oxygen tensions were measured 1 hour after administration of compounds with Licox® (Integra LifeSciences Corporation) Clark type probe under full anesthesia. The Licox® probe was positioned at the wound edges using a Venflon catheter (FIG. 1).

[2] = system: non-ischemic cutaneous lesions / non-TB chronic wounds; conditions: cited from earlier work
ischemic wounds = assay: Ischemic cutaneous wound healing in a validated rat model (dorsal ischemic skin flap); format: in vivo, Male Sprague-Dawley rats; conditions: 10 mg/kg i.p. b.i.d., 14 days; 8 mm full-thickness wound in ischemic flap; p=0.014
Description: The compounds were masked to the investigators. The first dose was given directly after wounding.
Results are expressed as mean±SD or mean±SEM. Wound healing differences among the two groups were calculated as the area under the wound healing curves (FIG. 2A+B) with correction according to Bonferroni (p=0.035). Licox® results were analyzed by the Wilcoxon test.

NNC(=O)c1ccncc1 [Isoniazid, pyridine-4-carbohydrazide]
Body weight difference among groups ([1]; before operation or after 14 days of treatment): did not differ significantly
Body weights before operation (Mean ± SD) ([1]; before operation, n=10): 360 ± 8 gram
Rats that died ([1]; group of 10 rats, death 5 days after operation): one
Body weights on post-wounding day 14 (Mean ± SD) ([1]; post operative day 14, 10 mg/kg i.p. b.i.d., n=9): 341 ± 12 gram
Effect on healing of a variety of non-TB chronic wounds ([2]; case report, Martyn and Campell (1963)): stimulating effects
Effect on ischemic tissue ([2]; conclusion of Martyn and Campell (1963)): little effect on ischemic tissue
Healing of coincidental non-ischemic cutaneous lesions ([2]; tuberculosis and non-tuberculosis patients treated with isoniazid (Potter and Taylor, 1969)): healed
Healing of ischemic wounds compared with the control (area under the wound healing curves) (ischemic wounds): promoted healing of the ischemic wounds; also recorded: stimulated ischemic wound healing
